Assays:
[1] = tested on: full length SMN2 minigene mRNA containing SMN2 exon 7 (SMN2-A minigene); experiment: SMN2 minigene mRNA splicing RT-qPCR assay in cultured cells; assay type: cell-based, human; conditions: Homo sapiens, HEK293-H; HEK293H cells stably transfected with SMN2-A minigene, 24 hours, 7-point concentration curve; concentration giving 1.5-fold SMN2 full length mRNA vs vehicle; read-out: EC1.5x for production of full length SMN2 mRNA
How it was run: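 HEK293H cells stably carrying the SMN2-A minigene were treated 24 h at 37 °C with a 7-point, 3.16-fold test compound series, in duplicate. Multiplex RT-qPCR measured exon 7-containing minigene FL mRNA, normalized to GAPDH and expressed relative to vehicle; EC1.5x is the concentration giving 1.5-fold FL mRNA.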

[2] = tested on: Smn protein; experiment: Smn protein assay (Smn HTRF) in cultured cells; assay type: cell-based, human; conditions: Homo sapiens, Fibroblast, GM03813 SMA Type 1 patient fibroblasts, 48 hours, HTRF; for maximal fold induction: 7-point concentration data, relative to vehicle, read-out: maximum fold (Fold) increase of Smn protein; for EC (1.5-fold): concentration producing 1.5 times Smn protein vs DMSO vehicle, read-out: EC1.5x for Smn protein expression
How it was run: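 SMA patient fibroblasts (5,000/well) were exposed to a 7-point, 3.16-fold compound dilution series for 48 hours at 37° C, in triplicate. Lysates were read by HTRF with anti-SMN d2/kryptate at 665/620 nm. Blank-corrected signal was expressed as fold over DMSO vehicle, giving the EC1.5x and the maximum fold increase.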

COc1cc(F)c(-c2cc(=O)c3cc(N4CCN[C@@H](C)C4)ccc3o2)cc1OC [Cpd 46, 2-(2-fluoro-4,5-dimethoxyphenyl)-6-[(3S)-3-methylpiperazin-1-yl]-4H-chromen-4-one] showed a melting point of 179 to 181 °C, an EC (1.5-fold) [1] of 0.3 to 1 µM and a maximal fold induction [2] of 1.5 to 1.65. The EC (1.5-fold) [2] was 1 to 3 µM.
COc1cc(F)c(-c2cc(=O)c3cc(N4C[C@@H](C)N[C@@H](C)C4)ccc3o2)cc1OC [Cpd 47, 6-[(3R,5S)-3,5-dimethylpiperazin-1-yl]-2-(2-fluoro-4,5-dimethoxyphenyl)-4H-chromen-4-one] showed a melting point of 164 to 166 °C, an EC (1.5-fold) [1] of 1 to 3 µM and a maximal fold induction [2] of 1.5 to 1.65. It also gave an EC (1.5-fold) [2] of 1 to 3 µM.
For COc1cc(F)c(-c2cc(=O)c3cc(N4CCN[C@H](C)C4)ccc3o2)cc1OC [Cpd 48, 2-(2-fluoro-4,5-dimethoxyphenyl)-6-[(3R)-3-methylpiperazin-1-yl]-4H-chromen-4-one], the melting point was 180 to 182 °C, the EC (1.5-fold) [1] was 1 to 3 µM and the maximal fold induction [2] was 1.5 to 1.65. For the same compound, the EC (1.5-fold) [2] was 1 to 3 µM.
In the case of CC(C)Oc1ccc(-c2cc(=O)c3cc(N4CCNCC4)ccc3o2)cc1 [Cpd 49, 6-(piperazin-1-yl)-2-[4-(propan-2-yloxy)phenyl]-4H-chromen-4-one], the melting point is reported as 126 to 128 °C, the EC (1.5-fold) [1] is reported as 1 to 3 µM and the maximal fold induction [2] is reported as at most 1.2.
For CC(C)Oc1ccc(-c2cc(=O)c3cc(N4CCN[C@@H](C)C4)ccc3o2)cc1 [Cpd 50, 6-[(3S)-3-methylpiperazin-1-yl]-2-[4-(propan-2-yloxy)phenyl]-4H-chromen-4-one], the melting point was 128 to 130 °C, the EC (1.5-fold) [1] was 1 to 3 µM and the maximal fold induction [2] was at most 1.2.
Work on COc1ccc(-c2cc(=O)c3cc(N4CCNCC4)ccc3o2)cc1C [Cpd 51, 2-(4-methoxy-3-methylphenyl)-6-(piperazin-1-yl)-4H-chromen-4-one] yielded a melting point of 98 to 100 °C, an EC (1.5-fold) [1] of 0.3 to 1 µM and a maximal fold induction [2] of 1.35 to 1.5.
With COc1ccc(-c2cc(=O)c3cc(N4CCN[C@@H](C)C4)ccc3o2)cc1C [Cpd 52, 2-(4-methoxy-3-methylphenyl)-6-[(3S)-3-methylpiperazin-1-yl]-4H-chromen-4-one] the melting point was 174 to 176 °C, the EC (1.5-fold) [1] was 0.1 to 0.3 µM and the maximal fold induction [2] was 1.35 to 1.5.
With COc1ccc(-c2cc(=O)c3cc(N4C[C@@H](C)N[C@@H](C)C4)ccc3o2)cc1C [Cpd 53, 6-[(3R,5S)-3,5-dimethylpiperazin-1-yl]-2-(4-methoxy-3-methylphenyl)-4H-chromen-4-one] the melting point was 186 to 188 °C, the EC (1.5-fold) [1] was 0.3 to 1 µM and the maximal fold induction [2] was 1.2 to 1.35.
In the case of COc1ccc(-c2cc(=O)c3cc(N4CCN[C@H](C)C4)ccc3o2)cc1C [Cpd 54, 2-(4-methoxy-3-methylphenyl)-6-[(3R)-3-methylpiperazin-1-yl]-4H-chromen-4-one], the melting point is reported as 164 to 166 °C, the EC (1.5-fold) [1] is reported as 0.3 to 1 µM and the maximal fold induction [2] is reported as 1.2 to 1.35.
Work on COc1ccc(-c2cc(=O)c3cc(N4CCNCC4)ccc3o2)cn1 [Cpd 55, 2-(6-methoxypyridin-3-yl)-6-(piperazin-1-yl)-4H-chromen-4-one] yielded a melting point of 165 to 170 °C, an EC (1.5-fold) [1] of 0.3 to 1 µM and a maximal fold induction [2] of 1.2 to 1.35.
Work on COc1ccc(-c2cc(=O)c3cc(N4CCN[C@@H](C)C4)ccc3o2)cn1 [Cpd 56, 2-(6-methoxypyridin-3-yl)-6-[(3S)-3-methylpiperazin-1-yl]-4H-chromen-4-one] yielded a melting point of 196 to 200 °C, an EC (1.5-fold) [1] of 0.3 to 1 µM and a maximal fold induction [2] of 1.35 to 1.5.
With COc1ccc(-c2cc(=O)c3cc(N4CCN[C@H](C)C4)ccc3o2)cn1 [Cpd 57, 2-(6-methoxypyridin-3-yl)-6-[(3R)-3-methylpiperazin-1-yl]-4H-chromen-4-one] the melting point was 198 to 200 °C, the EC (1.5-fold) [1] was 0.3 to 1 µM and the maximal fold induction [2] was 1.2 to 1.35.
For COc1ccc(-c2cc(=O)c3cc(N4CCNCC4)ccc3o2)cc1Cl [Cpd 58, 2-(3-chloro-4-methoxyphenyl)-6-(piperazin-1-yl)-4H-chromen-4-one], the melting point was 145 to 150 °C, the EC (1.5-fold) [1] was at most 0.1 µM and the maximal fold induction [2] was 1.35 to 1.5. For the same compound, the EC (1.5-fold) [2] was 1 to 3 µM.
COc1ccc(-c2cc(=O)c3cc(N4CCN[C@@H](C)C4)ccc3o2)cc1Cl [Cpd 59, 2-(3-chloro-4-methoxyphenyl)-6-[(3S)-3-methylpiperazin-1-yl]-4H-chromen-4-one] showed a melting point of 172 to 174 °C, an EC (1.5-fold) [1] of at most 0.1 µM and a maximal fold induction [2] of 1.5 to 1.65. The EC (1.5-fold) [2] was at most 0.3 µM.
COc1ccc(-c2cc(=O)c3cc(N4C[C@@H](C)N[C@@H](C)C4)ccc3o2)cc1Cl [Cpd 60, 2-(3-chloro-4-methoxyphenyl)-6-[(3R,5S)-3,5-dimethylpiperazin-1-yl]-4H-chromen-4-one] gave a melting point of 176 to 178 °C, an EC (1.5-fold) [1] of 0.1 to 0.3 µM and a maximal fold induction [2] of over 1.65. For the same compound, the EC (1.5-fold) [2] was 1 to 3 µM.
COc1ccc(-c2cc(=O)c3cc(N4CCN[C@H](C)C4)ccc3o2)cc1Cl [Cpd 61, 2-(3-chloro-4-methoxyphenyl)-6-[(3R)-3-methylpiperazin-1-yl]-4H-chromen-4-one] gave a melting point of 170 to 172 °C, an EC (1.5-fold) [1] of 0.1 to 0.3 µM and a maximal fold induction [2] of 1.2 to 1.35.
Compound COc1ccc(-c2cc(=O)c3cc(N4CCNCC4)ccc3o2)cc1 [Cpd 62, 2-(4-methoxyphenyl)-6-(piperazin-1-yl)-4H-chromen-4-one] has a melting point of 166 to 170 °C, an EC (1.5-fold) [1] of 0.1 to 0.3 µM and a maximal fold induction [2] of 1.2 to 1.35.
For COc1ccc(-c2cc(=O)c3cc(N4CCN[C@@H](C)C4)ccc3o2)cc1 [Cpd 63, 2-(4-methoxyphenyl)-6-[(3S)-3-methylpiperazin-1-yl]-4H-chromen-4-one], the melting point was 155 to 160 °C, the EC (1.5-fold) [1] was 0.1 to 0.3 µM and the maximal fold induction [2] was 1.5 to 1.65. The EC (1.5-fold) [2] was 0.3 to 1 µM.
For O=c1cc(-c2ccc(OC(F)(F)F)cc2)oc2ccc(N3CCNCC3)cc12 [Cpd 64, 6-(piperazin-1-yl)-2-[4-(trifluoromethoxy)phenyl]-4H-chromen-4-one], the melting point was 146 to 148 °C, the EC (1.5-fold) [1] was 0.3 to 1 µM and the maximal fold induction [2] was at most 1.2.
C[C@H]1CN(c2ccc3oc(-c4ccc(OC(F)(F)F)cc4)cc(=O)c3c2)CCN1 [Cpd 65, 6-[(3S)-3-methylpiperazin-1-yl]-2-[4-(trifluoromethoxy)phenyl]-4H-chromen-4-one] showed a melting point of 138 to 140 °C, an EC (1.5-fold) [1] of 1 to 3 µM and a maximal fold induction [2] of at most 1.2.
O=c1cc(-c2cccc(F)c2)oc2ccc(N3CCNCC3)cc12 [Cpd 66, 2-(3-fluorophenyl)-6-(piperazin-1-yl)-4H-chromen-4-one] gave a melting point of 150 to 152 °C, an EC (1.5-fold) [1] of 0.1 to 0.3 µM and a maximal fold induction [2] of 1.35 to 1.5.
For O=c1cc(-c2cccc(C(F)(F)F)c2)oc2ccc(N3CCNCC3)cc12 [Cpd 67, 6-(piperazin-1-yl)-2-[3-(trifluoromethyl)phenyl]-4H-chromen-4-one], the melting point was 174 to 176 °C, the EC (1.5-fold) [1] was 0.1 to 0.3 µM and the maximal fold induction [2] was 1.5 to 1.65. The EC (1.5-fold) [2] was 0.3 to 1 µM.
For COc1ccc(-c2cc(=O)c3cc(N4CCNCC4)ccc3o2)cc1OC(F)(F)F [Cpd 68, 2-[4-methoxy-3-(trifluoromethoxy)phenyl]-6-(piperazin-1-yl)-4H-chromen-4-one], the melting point was 104 to 106 °C, the EC (1.5-fold) [1] was 0.3 to 1 µM and the maximal fold induction [2] was at most 1.2.
COc1ccc(-c2cc(=O)c3cc(N4CCNCC4)ccc3o2)cc1C(F)(F)F [Cpd 69, 2-[4-methoxy-3-(trifluoromethyl)phenyl]-6-(piperazin-1-yl)-4H-chromen-4-one] gave a melting point of 128 to 132 °C, an EC (1.5-fold) [1] of 0.3 to 1 µM and a maximal fold induction [2] of 1.35 to 1.5.
COc1ccc(-c2cc(=O)c3cc(N4CCN[C@@H](C)C4)ccc3o2)cc1OC(F)(F)F [Cpd 70, 2-[4-methoxy-3-(trifluoromethoxy)phenyl]-6-[(3S)-3-methylpiperazin-1-yl]-4H-chromen-4-one] showed a melting point of 142 to 146 °C, an EC (1.5-fold) [1] of 0.3 to 1 µM and a maximal fold induction [2] of 1.2 to 1.35.
Compound COc1ccc(-c2cc(=O)c3cc(N4CCN[C@@H](C)C4)ccc3o2)cc1C(F)(F)F [Cpd 71, 2-[4-methoxy-3-(trifluoromethyl)phenyl]-6-[(3S)-3-methylpiperazin-1-yl]-4H-chromen-4-one] has a melting point of 182 to 184 °C, an EC (1.5-fold) [1] of 0.1 to 0.3 µM and a maximal fold induction [2] of 1.35 to 1.5. It also gave an EC (1.5-fold) [2] of 3 to 10 µM.
Work on Cc1cn2cc(-c3cc(=O)c4cc(N5CCN[C@@H](C)C5)ccc4o3)nc2cn1 [Cpd 73, 2-(6-methylimidazo[1,2-a]pyrazin-2-yl)-6-[(3S)-3-methylpiperazin-1-yl]-4H-chromen-4-one] yielded a melting point of 212 to 216 °C, an EC (1.5-fold) [1] of at most 0.1 µM and a maximal fold induction [2] of over 1.65. The EC (1.5-fold) [2] was at most 0.3 µM.
O=c1cc(-c2cncc(F)c2)oc2ccc(N3CCNCC3)cc12 [Cpd 74, 2-(5-fluoropyridin-3-yl)-6-(piperazin-1-yl)-4H-chromen-4-one] showed a melting point of 182 to 184 °C, an EC (1.5-fold) [1] of 0.3 to 1 µM and a maximal fold induction [2] of 1.5 to 1.65. It also gave an EC (1.5-fold) [2] of 1 to 3 µM.
For C[C@H]1CN(c2ccc3oc(-c4cncc(F)c4)cc(=O)c3c2)CCN1 [Cpd 75, 2-(5-fluoropyridin-3-yl)-6-[(3S)-3-methylpiperazin-1-yl]-4H-chromen-4-one], the melting point was 168 to 172 °C, the EC (1.5-fold) [1] was 0.3 to 1 µM and the maximal fold induction [2] was 1.5 to 1.65. The EC (1.5-fold) [2] was 1 to 3 µM.
